Laboratory results published in ChEMBL document CHEMBL1201862, “PubChem BioAssay data set” (2004).
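Test compounds were applied to cells in 96-well plates for 48 hours at 5 doses. Abbreviation: GI50, concentration required for 50% inhibition of growth.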 Active and inactive are the calls of the source. Cut-off read from the data, not from the text of the source: active = GI50 up to about 1.1 µM and inactive = higher.

Tests used:
Assay in all cases: NCI-60 cell line screen, 48 h
[1] = test system: K562
[2] = test system: TK-10
[3] = test system: SW-620
[4] = test system: UACC-62
[5] = test system: T47D
[6] = test system: SR
[7] = test system: U-251
[8] = test system: HT-29
[9] = test system: CAKI-1
[10] = test system: SF-539
[11] = test system: SF-268
[12] = test system: SNB-19
[13] = test system: NCI-H460
[14] = test system: MCF7
[15] = test system: HL-60
[16] = test system: MDA-MB-435
[17] = test system: SK-MEL-28
[18] = test system: CCRF-CEM
[19] = test system: KM12
[20] = test system: RXF 393
[21] = test system: UO-31
[22] = test system: HCC 2998
[23] = test system: HOP-92
[24] = test system: IGROV-1
[25] = test system: SN12C
[26] = test system: MDA-N
[27] = test system: 786-0
[28] = test system: NCI-H23
[29] = test system: HCT-15
[30] = test system: EKVX
[31] = test system: DU-145
[32] = test system: BT-549
[33] = test system: OVCAR-5
[34] = test system: SK-MEL-5
[35] = test system: NCI/ADR-RES
[36] = test system: SF-295
[37] = test system: Malme-3M
[38] = test system: OVCAR-8
[39] = test system: RPMI-8226
[40] = test system: SNB-75
[41] = test system: ACHN
[42] = test system: NCI-H522
[43] = test system: HCT-116
[44] = test system: M14
[45] = test system: NCI-H226
[46] = test system: UACC-257
[47] = test system: LOX IMVI
[48] = test system: COLO 205
[49] = test system: MOLT-4
[50] = test system: OVCAR-3
[51] = test system: PC-3
[52] = test system: HOP-62
[53] = test system: OVCAR-4
[54] = test system: SK-MEL-2
[55] = test system: SK-OV-3
[56] = test system: MDA-MB-231
[57] = test system: Hs-578T
[58] = test system: A549

SMILES: Cc1ccc(/N=N/N(C)C(=O)C(C)N)cc1 (configuration not stated)
- GI50 [1]: > 100 µM (inactive)
- GI50 [2]: > 100 µM (inactive)
- GI50 [3]: 8.53 µM (inactive)
- GI50 [4]: > 100 µM (inactive)
- GI50 [5]: > 100 µM (inactive)
- GI50 [6]: 26.9 µM (inactive)
- GI50 [7]: > 100 µM (inactive)
- GI50 [8]: > 100 µM (inactive)
- GI50 [9]: > 100 µM (inactive)
- GI50 [10]: > 100 µM (inactive)
- GI50 [11]: > 100 µM (inactive)
- GI50 [12]: > 100 µM (inactive)
- GI50 [13]: > 100 µM (inactive)
- GI50 [14]: > 100 µM (inactive)
- GI50 [15]: > 100 µM (inactive)
- GI50 [16]: > 100 µM (inactive)
- GI50 [17]: > 100 µM (inactive)
- GI50 [18]: > 100 µM (inactive)
- GI50 [19]: > 100 µM (inactive)
- GI50 [20]: > 100 µM (inactive)
- GI50 [21]: 34.4 µM (inactive)
- GI50 [22]: > 100 µM (inactive)
- GI50 [23]: > 100 µM (inactive)
- GI50 [24]: > 100 µM (inactive)
- GI50 [25]: > 100 µM (inactive)
- GI50 [26]: > 100 µM (inactive)
- GI50 [27]: > 100 µM (inactive)
- GI50 [28]: > 100 µM (inactive)
- GI50 [29]: > 100 µM
- GI50 [30]: > 100 µM (inactive)
- GI50 [31]: > 100 µM (inactive)
- GI50 [32]: > 100 µM (inactive)
- GI50 [33]: > 100 µM (inactive)
- GI50 [34]: > 100 µM (inactive)
- GI50 [35]: > 100 µM (inactive)
- GI50 [36]: > 100 µM (inactive)
- GI50 [37]: > 100 µM (inactive)
- GI50 [38]: > 100 µM (inactive)
- GI50 [39]: 16.1 µM (inactive)
- GI50 [40]: > 100 µM (inactive)
- GI50 [41]: > 100 µM (inactive)
- GI50 [42]: 60.1 µM (inactive)
- GI50 [43]: > 100 µM (inactive)
- GI50 [44]: > 100 µM (inactive)
- GI50 [45]: > 100 µM (inactive)
- GI50 [46]: > 100 µM (inactive)
- GI50 [47]: > 100 µM (inactive)
- GI50 [48]: > 100 µM (inactive)
- GI50 [49]: > 100 µM (inactive)
- GI50 [50]: > 100 µM (inactive)
- GI50 [51]: > 100 µM (inactive)
- GI50 [52]: > 100 µM (inactive)
- GI50 [53]: > 100 µM (inactive)
- GI50 [54]: > 100 µM (inactive)

SMILES: COc1ccccc1/C=C1/Sc2scc(CC(=O)Nc3ccccc3)[n+]2C1=O
- GI50 [2]: 25.2 µM (inactive)
- GI50 [3]: 35 µM (inactive)
- GI50 [4]: 14.4 µM (inactive)
- GI50 [55]: 27.5 µM (inactive)
- GI50 [7]: 33 µM (inactive)
- GI50 [8]: 42 µM (inactive)
- GI50 [9]: 53 µM (inactive)
- GI50 [10]: 36.3 µM (inactive)
- GI50 [11]: 47.6 µM (inactive)
- GI50 [12]: 29.1 µM (inactive)
- GI50 [13]: 29.5 µM (inactive)
- GI50 [14]: 31.4 µM (inactive)
- GI50 [15]: 15 µM (inactive)
- GI50 [16]: 28.4 µM (inactive)
- GI50 [17]: 22.4 µM (inactive)
- GI50 [18]: 17.7 µM (inactive)
- GI50 [19]: 19.7 µM (inactive)
- GI50 [20]: 22.6 µM (inactive)
- GI50 [21]: 17.9 µM (inactive)
- GI50 [22]: 30.8 µM (inactive)
- GI50 [23]: 17 µM (inactive)
- GI50 [24]: 38 µM (inactive)
- GI50 [25]: 31.3 µM (inactive)
- GI50 [26]: 20.2 µM (inactive)
- GI50 [27]: 28.6 µM (inactive)
- GI50 [28]: 28.6 µM (inactive)
- GI50 [29]: 26.6 µM
- GI50 [30]: 30.9 µM (inactive)
- GI50 [56]: 23 µM (inactive)
- GI50 [31]: 27.7 µM (inactive)
- GI50 [57]: 40.6 µM (inactive)
- GI50 [32]: 15.3 µM (inactive)
- GI50 [33]: 47 µM (inactive)
- GI50 [34]: 16 µM (inactive)
- GI50 [35]: 19.8 µM (inactive)
- GI50 [36]: 32.9 µM (inactive)
- GI50 [38]: 31.8 µM (inactive)
- GI50 [40]: 26.9 µM (inactive)
- GI50 [41]: 28.9 µM (inactive)
- GI50 [42]: 20.3 µM (inactive)
- GI50 [58]: 31.5 µM (inactive)
- GI50 [43]: 24.6 µM (inactive)
- GI50 [44]: 28.4 µM (inactive)
- GI50 [45]: 20.3 µM (inactive)
- GI50 [46]: 25.1 µM (inactive)
- GI50 [47]: 39 µM (inactive)
- GI50 [48]: 20.4 µM (inactive)
- GI50 [49]: 17.2 µM (inactive)
- GI50 [50]: 16.9 µM (inactive)
- GI50 [51]: 26 µM (inactive)
- GI50 [52]: 34 µM (inactive)
- GI50 [53]: 21 µM (inactive)
- GI50 [54]: 19.1 µM (inactive)
